According to the supplement of paper PMC8671470:
Counter-ions that a name gives are not always drawn.

Key:
Conditions in all cases: 72 h
[1] = test system: HL-60; assay: area under dose-response curve (viability, 1 nM-10 uM) (fraction (0-1)); higher = more sensitive
Summary of the method: (§1)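 HL-60 cells in RPMI 1640 with 10% FBS were rescreened against the full library on 384-well plates at five tenfold concentrations, 1–10,000 nM, in duplicate. Each screen was run with DMSO or 100 nM of one of three metabolic inhibitors, for 72 h at 37 °C, 5% CO2. Viability was read by CellTiter-Glo and normalised to DMSO and 10 μM proteasome-inhibitor wells. Where given, area under the curve came from four-parameter log-logistic fits (drc, PharmacoGx).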

[2] = test system: HL-60; assay: cell viability (% survival relative to DMSO control); higher = less cytotoxic
Summary of the method: as §1

[3] = test system: KCL-22; assay: cell viability (% survival relative to DMSO control, bortezomib = 0%); higher = less cytotoxic
Summary of the method: (§2)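 Fifteen myeloid leukaemia cell lines (10 AML, 5 CML) were seeded at a density titrated to the linear growth range into 384-well plates pre-printed with compounds at 1, 10, 100, 1000 or 10000 nM in duplicate. Plates were incubated for 72 h at 37 °C with 5% CO2. Viability was then read by CellTiter-Glo luminescence. Each value is percent survival averaged over the duplicates, with vehicle set to 100% and a 10 µM positive control to 0%.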

[4] = test system: LAMA-84; assay: as above
Summary of the method: as §2

[5] = test system: K-562; assay: as above
Summary of the method: as §2

[6] = test system: Mono-Mac-6; assay: as above
Summary of the method: as §2

[7] = test system: MV4-11; assay: as above
Summary of the method: as §2

[8] = test system: SHI-1; assay: as above
Summary of the method: as §2

[9] = test system: BV-173; assay: as above
Summary of the method: as §2

[10] = test system: KG-1; assay: as above
Summary of the method: as §2

[11] = test system: MOLM-13; assay: as above
Summary of the method: as §2

[12] = test system: KU-812; assay: as above
Summary of the method: as §2

[13] = test system: NOMO-1; assay: as above
Summary of the method: as §2

[14] = test system: HEL; assay: as above
Summary of the method: as §2

[15] = test system: THP-1; assay: as above
Summary of the method: as §2

[16] = test system: HL-60; assay: as above
Summary of the method: as §2

[17] = test system: ML-2; assay: as above
Summary of the method: as §2

[18] = test system: KCL-22
Summary of the method: (§3)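 Each of fifteen myeloid leukaemia cell lines was seeded in RPMI 1640 at a density titrated to its linear growth range. The cells were incubated for 72 h at 37 °C and 5% CO2 with compounds at five tenfold doses from 1 to 10,000 nM, in duplicate. After ATP luminescence was normalised to vehicle and to a positive control at 10 µM, four-parameter log-logistic curves were fitted. These curves gave the IC50.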

[19] = test system: LAMA-84
Summary of the method: as §3

[20] = test system: K-562
Summary of the method: as §3

[21] = test system: Mono-Mac-6
Summary of the method: as §3

[22] = test system: MV4-11
Summary of the method: as §3

[23] = test system: SHI-1
Summary of the method: as §3

[24] = test system: BV-173
Summary of the method: as §3

[25] = test system: KG-1
Summary of the method: as §3

[26] = test system: MOLM-13
Summary of the method: as §3

[27] = test system: KU-812
Summary of the method: as §3

[28] = test system: NOMO-1
Summary of the method: as §3

[29] = test system: HEL
Summary of the method: as §3

[30] = test system: THP-1
Summary of the method: as §3

[31] = test system: HL-60
Summary of the method: as §3

[32] = test system: ML-2
Summary of the method: as §3

Cn1cc(-c2ccncc2)c(-c2ccc(OCc3ccc4ccccc4n3)cc2)n1
[1]
Conditions | area under dose-response curve
co-treatment: AZD3965 100 nM | < 0.0301
co-treatment: DMSO vehicle | < 0.0301
co-treatment: GSK2194069 100 nM | 0.05
co-treatment: pictilisib 100 nM | 0.05

cell viability [%], [2]
Conditions | 0.001 µM | 0.01 µM | 0.1 µM | 1 µM | 10 µM
co-treatment: AZD3965 100 nM | 94.1 | 101 | 101 | 96.7 | 103
co-treatment: DMSO vehicle | 99.1 | 94.8 | 102 | 98.248 | 101
co-treatment: GSK2194069 100 nM | 103 | 101 | 107 | 90.9 | 81.8
co-treatment: pictilisib 100 nM | 98.7 | 101 | 114 | 94.4 | 107

Cc1cc(CS(=O)(=O)c2ccccc2)cc(OCc2ccc(CN3CCC[C@@H]3CO)cc2)c1 [PF-543 hydrochloride]
cell viability [%]
Conditions | 1 nM | 10 nM | 100 nM | 1000 nM | 10000 nM
[3] | 91.5 | 94.5 | 122 | 82.5 | 84.9
[4] | 108 | 91.9 | 103 | 93.9 | 71.5
[5] | 90.4 | 113 | 131 | 91.1 | 40.4
[6] | 89.6 | 84.7 | 101 | 89.8 | 82.9
[7] | 83.5 | 104 | 119 | 103 | 65.5
[8] | 82.3 | 109 | 100 | 84.8 | 87.9
[9] | 83.7 | 103 | 152 | 87.8 | 56.7
[10] | 92.1 | 102 | 114 | 111 | 84.3
[11] | 72.9 | 110 | 88.8 | 117 | 79.6
[12] | 97.5 | 91.6 | 97.7 | 101 | 61
[13] | 89.2 | 94.9 | 103 | 101 | 93
[14] | 92 | 88.6 | 105 | 88.1 | 94
[15] | 89.7 | 95.5 | 111 | 94.8 | 96.5
[16] | 118 | 92.2 | 119 | 83.7 | 79.8
[17] | 89.8 | 97.3 | 130 | 91 | 88.5

Conditions | IC50 (cell viability) [µM]
[18] | > 10
[19] | > 10
[20] | 4.85
[21] | > 10
[22] | > 10
[23] | > 10
[24] | 8.45
[25] | > 10
[26] | > 10
[27] | > 10
[28] | > 10
[29] | > 10
[30] | > 10
[31] | > 10
[32] | > 10

CCOC(=O)c1ccc(-c2ccc(OC(=O)N(C)Cc3cccc(-c4ccncc4)c3)cc2)cc1 [WWL113]
cell viability [%]
Conditions | 1 nM | 10 nM | 100 nM | 1000 nM | 10000 nM
[3] | 132 | 95.4 | 98.7 | 92.9 | 110
[4] | 113 | 104 | 94.8 | 114 | 101
[5] | 121 | 105 | 94 | 92.1 | 87.5
[6] | 108 | 112 | 102 | 94.2 | 109
[7] | 129 | 101 | 105 | 103 | 93.3
[8] | 114 | 100 | 92 | 95.2 | 108
[9] | 123 | 114 | 102 | 105 | 94.9
[10] | 99.2 | 93.4 | 92.7 | 94.3 | 107
[11] | 120 | 122 | 97.3 | 85.8 | 105
[12] | 112 | 100 | 105 | 91.6 | 92
[13] | 104 | 106 | 88.1 | 104 | 105
[14] | 134 | 99.2 | 91.9 | 104 | 99.6
[15] | 114 | 101 | 95.2 | 101 | 102
[16] | 103 | 91.3 | 89.1 | 114 | 125
[17] | 104 | 101 | 94.7 | 106 | 106

Conditions | IC50 (cell viability) [µM]
[18] | > 10
[19] | > 10
[20] | > 10
[21] | > 10
[22] | > 10
[23] | > 10
[24] | > 10
[25] | > 10
[26] | > 10
[27] | > 10
[28] | > 10
[29] | > 10
[30] | > 10
[31] | > 10
[32] | > 10

O=C(O)C(=S)Cc1c[nH]c2ccc(F)cc12
[1]
Conditions | area under dose-response curve
co-treatment: AZD3965 100 nM | < 0.0301
co-treatment: DMSO vehicle | < 0.0301
co-treatment: GSK2194069 100 nM | < 0.0301
co-treatment: pictilisib 100 nM | < 0.0301

cell viability [%], [2]
Conditions | 0.001 µM | 0.01 µM | 0.1 µM | 1 µM | 10 µM
co-treatment: AZD3965 100 nM | 94 | 98.2 | 106 | 103 | 101.9
co-treatment: DMSO vehicle | 99.1 | 101 | 106 | 102 | 104
co-treatment: GSK2194069 100 nM | 90.8 | 101 | 103 | 104 | 104
co-treatment: pictilisib 100 nM | 91.7 | 99.9 | 101.8 | 101 | 97.2
